Assay results taken from PubChem BioAssay AID248 (DTP/NCI, 2004).
Where “and” joins values, the source holds several entries; their conditions need not be identical. Equal entries are not always repeated. Inconclusive results and toxic doses are left out. Cut-off read from the data, not from the text of the source: active = T/C of 150% or more; inactive = T/C below 125%.

System: L1210 leukemia ip in BDF1 mice, survival T/C
Assay: NCI In Vivo Anticancer Drug Screen. Data for tumor model L1210 Leukemia (intraperitoneal) in B6D2F1 (BDF1) mice
Conditions: endpoint: mean survival time, higher = longer survival
Method in brief: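 Each compound was tested against a transplantable tumor grown in mice. The endpoint was survival, with treated animals benchmarked against vehicle controls as a simple ratio.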

[1] = dose: 50.0 mg/kg/injection, schedule: Q01DX009 (ip), vehicle: saline with Tween-80
[2] = dose: 100.0 mg/kg/injection, schedule: Q01DX009 (ip), vehicle: saline with Tween-80
[3] = dose: 200.0 mg/kg/injection, schedule: Q01DX009 (ip), vehicle: saline with Tween-80
[4] = dose: 100.0 mg/kg/injection, schedule: Q04DX002 (ip), vehicle: Klucel (hydroxypropylcellulose) (HPC)
[5] = dose: 200.0 mg/kg/injection, schedule: Q04DX002 (ip), vehicle: Klucel (hydroxypropylcellulose) (HPC)
[6] = dose: 400.0 mg/kg/injection, schedule: Q04DX002 (ip), vehicle: Klucel (hydroxypropylcellulose) (HPC)
[7] = dose: 100.0 mg/kg/injection, schedule: Q01DX009 (ip), vehicle: Klucel (hydroxypropylcellulose) (HPC)
[8] = dose: 200.0 mg/kg/injection, schedule: Q01DX009 (ip), vehicle: Klucel (hydroxypropylcellulose) (HPC)
[9] = dose: 400.0 mg/kg/injection, schedule: Q01DX009 (ip), vehicle: Klucel (hydroxypropylcellulose) (HPC)
[10] = dose: 100.0 mg/kg/injection, schedule: Q01DX001 (ip), vehicle: saline with Tween-80
[11] = dose: 100.0 mg/kg/injection, schedule: Q01DX009 (ip), vehicle: saline
[12] = dose: 100.0 mg/kg/injection, schedule: Q04DX003 (ip), vehicle: saline with Tween-80
[13] = dose: 200.0 mg/kg/injection, schedule: Q01DX009 (ip), vehicle: saline
[14] = dose: 200.0 mg/kg/injection, schedule: Q04DX003 (ip), vehicle: saline with Tween-80
[15] = dose: 400.0 mg/kg/injection, schedule: Q01DX009 (ip), vehicle: saline
[16] = dose: 400.0 mg/kg/injection, schedule: Q04DX003 (ip), vehicle: saline with Tween-80
[17] = dose: 100.0 mg/kg/injection, schedule: Q01DX001 (ip), vehicle: Klucel (hydroxypropylcellulose) (HPC)
[18] = dose: 200.0 mg/kg/injection, schedule: Q01DX001 (ip), vehicle: Klucel (hydroxypropylcellulose) (HPC)
[19] = dose: 400.0 mg/kg/injection, schedule: Q01DX001 (ip), vehicle: Klucel (hydroxypropylcellulose) (HPC)
[20] = dose: 100.0 mg/kg/injection, schedule: Q04DX003 (ip), vehicle: Klucel (hydroxypropylcellulose) (HPC)
[21] = dose: 200.0 mg/kg/injection, schedule: Q04DX003 (ip), vehicle: Klucel (hydroxypropylcellulose) (HPC)
[22] = dose: 400.0 mg/kg/injection, schedule: Q04DX003 (ip), vehicle: Klucel (hydroxypropylcellulose) (HPC)

Measured: T/C

CCc1c(C)nc2[nH]ncn2c1=O
inactive: dose: 75.0 mg/kg/injection, schedule: Q01DX001 (ip), vehicle: other 96 % of control | dose: 150.0 mg/kg/injection, schedule: Q01DX001 (ip), vehicle: other 97 % of control | dose: 300.0 mg/kg/injection, schedule: Q01DX001 (ip), vehicle: other 93 % of control

OCCC=C(c1ccccc1)c1ccccc1
inactive: [1] 107 % of control | [2] 100 % of control | [3] 104 % of control

CCSCCCCO
inactive: dose: 75.0 mg/kg/injection, schedule: Q01DX001 (ip), vehicle: saline 101 % of control | dose: 75.0 mg/kg/injection, schedule: Q01DX009 (ip), vehicle: saline 102 % of control | dose: 150.0 mg/kg/injection, schedule: Q01DX001 (ip), vehicle: saline 101 % of control | dose: 150.0 mg/kg/injection, schedule: Q01DX009 (ip), vehicle: saline 100 % of control | dose: 300.0 mg/kg/injection, schedule: Q01DX001 (ip), vehicle: saline 97 % of control

CC(=O)O/N=C(/C)c1ccccc1
inactive: dose: 75.0 mg/kg/injection, schedule: Q01DX009 (ip), vehicle: saline sonified 102 % of control | dose: 100.0 mg/kg/injection, schedule: Q04DX003 (ip), vehicle: saline sonified 100 % of control | dose: 150.0 mg/kg/injection, schedule: Q01DX009 (ip), vehicle: saline sonified 100 % of control | dose: 200.0 mg/kg/injection, schedule: Q04DX003 (ip), vehicle: saline sonified 97 % of control | dose: 400.0 mg/kg/injection, schedule: Q04DX003 (ip), vehicle: saline sonified 100 % of control

Nc1c([N+](=O)[O-])cc(Cl)c(Cl)c1F
inactive: [4] 101 % of control | [5] 96 % of control | [6] 96 % of control

O=C(Nc1ccccc1Cl)NC1CCCCC1
inactive: [7] 100 % of control | [4] 95 % of control | [8] 97 % of control | [5] 100 % of control | [9] 91 % of control | [6] 95 % of control

CCOC(=O)c1ccc(NC(=O)Nc2ccc(OC)cc2OC)cc1
inactive: dose: 12.5 mg/kg/injection, schedule: Q01DX009 (ip), vehicle: saline with Tween-80 94 % of control and 95 % of control | dose: 25.0 mg/kg/injection, schedule: Q01DX009 (ip), vehicle: saline with Tween-80 94 % of control and 103 % of control | [1] 95 % of control and 87 % of control | [10] 86 % of control | dose: 100.0 mg/kg/injection, schedule: Q04DX002 (ip), vehicle: saline with Tween-80 97 % of control | dose: 200.0 mg/kg/injection, schedule: Q01DX001 (ip), vehicle: saline with Tween-80 89 % of control | dose: 200.0 mg/kg/injection, schedule: Q04DX002 (ip), vehicle: saline with Tween-80 91 % of control | dose: 400.0 mg/kg/injection, schedule: Q01DX001 (ip), vehicle: saline with Tween-80 91 % of control | dose: 400.0 mg/kg/injection, schedule: Q04DX002 (ip), vehicle: saline with Tween-80 93 % of control

O=C(O)C1C2CC3OC(=O)C1C3C2O (stereo not given)
inactive: [11] 103 % of control | [12] 96 % of control | [13] 94 % of control | [14] 86 % of control | [15] 100 % of control | [16] 86 % of control

O=C1CCS(=O)(=O)CC1
inactive: dose: 50.0 mg/kg/injection, schedule: Q04DX003 (ip), vehicle: saline with Tween-80 92 % of control | [12] 90 % of control | [14] 89 % of control

C=C1C(=O)OC2C1CCC(C)C1(O)C=CC(=O)C21C (stereo not given)
inactive: dose: 6.25 mg/kg/injection, schedule: Q01DX009 (ip), vehicle: saline 98 % of control | dose: 12.5 mg/kg/injection, schedule: Q01DX009 (ip), vehicle: saline 98 % of control | dose: 25.0 mg/kg/injection, schedule: Q01DX009 (ip), vehicle: saline 101 % of control | dose: 50.0 mg/kg/injection, schedule: Q01DX009 (ip), vehicle: saline 103 % of control

Cc1ccc(S(=O)(=O)/N=S(/C)CC/S(C)=N/S(=O)(=O)c2ccc(C)cc2)cc1 (stereo not given)
inactive: [7] 102 % of control | [8] 105 % of control | [9] 100 % of control

COc1ccc(-n2c(=O)c(N=Nc3ccccc3Cl)c(O)n(-c3ccccc3C)c2=S)cc1
inactive: [17] 97 % of control | [18] 93 % of control | [19] 104 % of control

CCOC(=O)/C=C\CC(O)CC (stereo not given)
inactive: [7] 105 % of control | [20] 98 % of control | [8] 105 % of control | [21] 104 % of control | [9] 118 % of control | [22] 114 % of control

Clc1ccc(Br)c(Cl)c1
inactive: [7] 98 % of control | [20] 94 % of control | [8] 94 % of control | [21] 109 % of control | [9] 92 % of control | [22] 93 % of control

CS(=O)(=O)OCCC(COS(C)(=O)=O)S(=O)(=O)CCCOc1ccccc1-c1ccccc1 (stereo not given)
inactive: [1] 94 % of control | [2] 94 % of control | [3] 94 % of control

CC1(C)N=C(N)N=C(N)N1c1cccc(C(=O)CCl)c1
inactive: dose: 25.0 mg/kg/injection, schedule: Q01DX001 (ip), vehicle: saline with Tween-80 95 % of control | dose: 50.0 mg/kg/injection, schedule: Q01DX001 (ip), vehicle: saline with Tween-80 103 % of control | [10] 101 % of control

CCCNC(c1ccccc1)=[N+]1CCCCC1
inactive: dose: 12.5 mg/kg/injection, schedule: Q04DX002 (ip), vehicle: saline 95 % of control | dose: 25.0 mg/kg/injection, schedule: Q04DX002 (ip), vehicle: saline 98 % of control

ClC(Cl)(Cl)C1OCOC(C(Cl)(Cl)Cl)O1 (stereo not given)
inactive: [12] 98 % of control | [14] 96 % of control | [16] 101 % of control

CC1(C)C2CCC(O)(C(=O)O)C1C2 (stereo not given)
inactive: dose: 50.0 mg/kg/injection, schedule: Q01DX001 (ip), vehicle: carboxymethylcellulose (CMC) 106 % of control | dose: 100.0 mg/kg/injection, schedule: Q01DX001 (ip), vehicle: carboxymethylcellulose (CMC) 91 % of control | dose: 200.0 mg/kg/injection, schedule: Q01DX001 (ip), vehicle: carboxymethylcellulose (CMC) 91 % of control | dose: 400.0 mg/kg/injection, schedule: Q01DX001 (ip), vehicle: carboxymethylcellulose (CMC) 100 % of control

COc1cc(/C(C)=N/N=C(\C)c2ccc(O)c(OC)c2)ccc1O
inactive: [11] 94 % of control | [13] 90 % of control | [15] 90 % of control

COc1ccc([N+](=O)[O-])cc1NC(=O)N1CCCCC1C (stereo not given)
inactive: [17] 101 % of control | [7] 98 % of control and 102 % of control | [4] 97 % of control and 103 % of control | [20] 106 % of control | [18] 102 % of control | [8] 98 % of control and 106 % of control | [5] 94 % of control and 105 % of control | [21] 99 % of control | [19] 96 % of control | [9] 95 % of control and 96 % of control | [6] 94 % of control and 110 % of control | [22] 91 % of control

CC1C(=O)OCC1C(c1ccccc1)(c1ccccc1)c1ccccc1 (stereo not given)
inactive: dose: 100.0 mg/kg/injection, schedule: Q04DX002 (ip), vehicle: gum acacia 100 % of control | dose: 200.0 mg/kg/injection, schedule: Q04DX002 (ip), vehicle: gum acacia 103 % of control | dose: 400.0 mg/kg/injection, schedule: Q04DX002 (ip), vehicle: gum acacia 89 % of control

COC(=O)c1cc(C)[nH]c2c(C)cc3nc4ccccc4c3c12
inactive: dose: 50.0 mg/kg/injection, schedule: Q01DX001 (ip), vehicle: saline 95 % of control | dose: 100.0 mg/kg/injection, schedule: Q01DX001 (ip), vehicle: saline 98 % of control | dose: 200.0 mg/kg/injection, schedule: Q01DX001 (ip), vehicle: saline 101 % of control | dose: 400.0 mg/kg/injection, schedule: Q01DX001 (ip), vehicle: saline 104 % of control

Cc1cccc(/C(=C/c2ccc([N+](=O)[O-])cc2)C(=O)Nc2ccc(S(=O)(=O)F)cc2)c1
inactive: [2] 96 % of control | [3] 97 % of control | dose: 400.0 mg/kg/injection, schedule: Q01DX009 (ip), vehicle: saline with Tween-80 96 % of control
